Legend:
[1] = test system: mPTP; test: mPTP activity (Ca2+ retention) assay in isolated rat liver mitochondria; assay type: biochemical; conditions: isolated rat liver mitochondria; Fluo5N fluorescence at 10 min after CaCl2 (75 μM) bolus; DMSO 0%, 5 μM cyclosporin A 100% inhibition
Outline: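 Freshly isolated female Sprague Dawley rat liver mitochondria with succinate, rotenone and Fluo5N were preincubated 10 min at RT with compounds (final 30 μM to 1 nM), then challenged with CaCl2. Fluorescence at 10 min gave % inhibition versus DMSO (0%) and 5 μM cyclosporin A (100%); pIC50 calculated.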

[2] = test system: mPTP; test: mPTP activity (Ca2+ retention) assay in isolated rat brain mitochondria; assay type: biochemical; conditions: isolated rat brain mitochondria; Fluo5N fluorescence at 10 min after Ca2+ (75 μM) bolus
Outline: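 Mitochondria freshly isolated from brains of perfused female Sprague Dawley rats, digitonin-treated, in pH 7.4 mannitol/MOPS/KCl buffer with pyruvate, malate, ADP and oligomycin A. Incubated with compound 10 min at RT with 2 μM Fluo5N. Fluorescence then read every 3 s for 10 min.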

| Compound | mPTP Rat liver pIC50* [1] | mPTP Rat brain pIC50 [2] |
| --- | --- | --- |
| O=C(c1cc(O)no1)N1CC(c2ccc(F)cc2)C2(CCC2)C1 (single isomer, unassigned) [Example 36b, (8-(4-fluorophenyl)-6-azaspiro[3.4]octan-6-yl)(3-hydroxyisoxazol-5-yl)methanone] | <4.52 | <4.52 |
| O=C(c1cncc(=O)[nH]1)N1CC(c2ccc(F)cc2F)C2(CCC2)C1 (single isomer, unassigned) [Example 37a, 6-(8-(2,4-difluorophenyl)-6-azaspiro[3.4]octane-6-carbonyl)pyrazin-2(1H)-one] | 5.99 | 7.28 |
| O=C(c1cncc(=O)[nH]1)N1CC(c2ccc(F)cc2F)C2(CCC2)C1 (single isomer, unassigned) [Example 37b, 6-(8-(2,4-difluorophenyl)-6-azaspiro[3.4]octane-6-carbonyl)pyrazin-2(1H)-one] | <4.52 | <4.52 |
| O=C(c1cc(O)no1)N1CC(c2cccc(F)c2)C2(CCC2)C1 (single isomer, unassigned) [Example 38a, (8-(3-fluorophenyl)-6-azaspiro[3.4]octan-6-yl)(3-hydroxyisoxazol-5-yl)methanone] | 6.41 | 7.34 |
| O=C(c1cc(O)no1)N1CC(c2cccc(F)c2)C2(CCC2)C1 (single isomer, unassigned) [Example 38b, (8-(3-fluorophenyl)-6-azaspiro[3.4]octan-6-yl)(3-hydroxyisoxazol-5-yl)methanone] | <4.52 | <4.52 |
| O=C(c1cc(O)no1)N1CC(c2cccc(F)c2F)C2(CCC2)C1 (single isomer, unassigned) [Example 39a, (8-(2,3-difluorophenyl)-6-azaspiro[3.4]octan-6-yl)(3-hydroxyisoxazol-5-yl)methanone] | 6.47 | 7.41 |
| O=C(c1cc(O)no1)N1CC(c2cccc(F)c2F)C2(CCC2)C1 (single isomer, unassigned) [Example 39b, (8-(2,3-difluorophenyl)-6-azaspiro[3.4]octan-6-yl)(3-hydroxyisoxazol-5-yl)methanone] | <4.52 | <4.52 |
| O=C(c1cncc(=O)[nH]1)N1CC(c2cccc(F)c2)C2(CCC2)C1 (single isomer, unassigned) [Example 40a, 6-(8-(3-fluorophenyl)-6-azaspiro[3.4]octane-6-carbonyl)pyrazin-2(1H)-one] | 6.55 | 7.34 |
| O=C(c1cncc(=O)[nH]1)N1CC(c2cccc(F)c2)C2(CCC2)C1 (single isomer, unassigned) [Example 40b, 6-(8-(3-fluorophenyl)-6-azaspiro[3.4]octane-6-carbonyl)pyrazin-2(1H)-one] | 4.97 | <4.52 |
| O=C(c1noc(=O)[nH]1)N1CC(c2ccc(F)cc2)C2(CCC2)C1 (single isomer, unassigned) [Example 41a, 3-(8-(4-fluorophenyl)-6-azaspiro[3.4]octane-6-carbonyl)-1,2,4-oxadiazol-5(4H)-one] | 5.95 | 7.19 |
| O=C(c1noc(=O)[nH]1)N1CC(c2ccc(F)cc2)C2(CCC2)C1 (single isomer, unassigned) [Example 41b, 3-(8-(4-fluorophenyl)-6-azaspiro[3.4]octane-6-carbonyl)-1,2,4-oxadiazol-5(4H)-one] | <4.52 | <4.52 |
| O=C(c1cc(O)no1)N1CC(c2ccc(F)cc2F)C2(CCC2)C1 (single isomer, unassigned) [Example 42a, (8-(2,4-difluorophenyl)-6-azaspiro[3.4]octan-6-yl)(3-hydroxyisoxazol-5-yl)methanone] | 6.26 | 6.99 |
| O=C(c1cc(O)no1)N1CC(c2ccc(F)cc2F)C2(CCC2)C1 (single isomer, unassigned) [Example 42b, (8-(2,4-difluorophenyl)-6-azaspiro[3.4]octan-6-yl)(3-hydroxyisoxazol-5-yl)methanone] | <4.52 | <4.52 |
| O=C(c1cncc(=O)[nH]1)N1CC(c2cccc(F)c2F)C2(CCC2)C1 (single isomer, unassigned) [Example 43a, 6-(8-(2,3-difluorophenyl)-6-azaspiro[3.4]octane-6-carbonyl)pyrazin-2(1H)-one] | 6.56 | 7.43 |
| O=C(c1cncc(=O)[nH]1)N1CC(c2cccc(F)c2F)C2(CCC2)C1 (single isomer, unassigned) [Example 43b, 6-(8-(2,3-difluorophenyl)-6-azaspiro[3.4]octane-6-carbonyl)pyrazin-2(1H)-one] | 4.94 | 5.69 |
| O=C(c1noc(=O)[nH]1)N1CC(c2cccc(F)c2F)C2(CCC2)C1 (single isomer, unassigned) [Example 44a, 3-(8-(2,3-difluorophenyl)-6-azaspiro[3.4]octane-6-carbonyl)-1,2,4-oxadiazol-5(4H)-one] | 5.63 | 7.33 |
| O=C(c1noc(=O)[nH]1)N1CC(c2cccc(F)c2F)C2(CCC2)C1 (single isomer, unassigned) [Example 44b, 3-(8-(2,3-difluorophenyl)-6-azaspiro[3.4]octane-6-carbonyl)-1,2,4-oxadiazol-5(4H)-one] | <4.52 | 5.19 |
| O=C(c1cncc(=O)[nH]1)N1CC(c2ccc(F)c(F)c2)C2(CCC2)C1 (single isomer, unassigned) [Example 45a, 6-(8-(3,4-difluorophenyl)-6-azaspiro[3.4]octane-6-carbonyl)pyrazin-2(1H)-one] | 6.15 | 7.45 |
| O=C(c1cncc(=O)[nH]1)N1CC(c2ccc(F)c(F)c2)C2(CCC2)C1 (single isomer, unassigned) [Example 45b, 6-(8-(3,4-difluorophenyl)-6-azaspiro[3.4]octane-6-carbonyl)pyrazin-2(1H)-one] | <4.52 | 6.78 |
| O=C(c1cc(O)no1)N1CC(c2ccc(F)c(F)c2)C2(CCC2)C1 (single isomer, unassigned) [Example 46a, (8-(3,4-difluorophenyl)-6-azaspiro[3.4]octan-6-yl)(3-hydroxyisoxazol-5-yl)methanone] | 6.28 | 7.44 |
| O=C(c1cc(O)no1)N1CC(c2ccc(F)c(F)c2)C2(CCC2)C1 (single isomer, unassigned) [Example 46b, (8-(3,4-difluorophenyl)-6-azaspiro[3.4]octan-6-yl)(3-hydroxyisoxazol-5-yl)methanone] | <4.52 | 7.03 |
| O=C(c1noc(=O)[nH]1)N1CC(c2ccc(F)c(F)c2)C2(CCC2)C1 (single isomer, unassigned) [Example 47a, 3-(8-(3,4-difluorophenyl)-6-azaspiro[3.4]octane-6-carbonyl)-1,2,4-oxadiazol-5(4H)-one] | 5.75 | 7 |
